Reference: patent US20090186762A1, “METHOD FOR IMPROVING THE TOLERANCE OF PLANTS TO CHILLING TEMPERATURES AND/OR FROST” (BASF SE, priority 2006, published 2009)

Assays:
Type in all cases: in vivo
[1] = tested on: Corn seeds (Zea mays; variety Pioneer herbicide resistant 33P71); test: Cold stress on corn seedlings after seed treatment; conditions: second exposure to cold stress (−5° C., 2 hours, code 13)
Procedure: Corn seeds (Zea mays; variety Pioneer herbicide resistant 33P71) were treated using either:
T1: Water (untreated) T2: Pyraclostrobin (5 g active ingredient 100 kg seeds) T3. Azoxystrobin (1 g active ingredient/100 kg seeds)
Subsequently, the treated seeds were planted in plastic pots (6 cm×6 cm×7 cm) filled with sand (metro mix). Seeds were incubated in a growth chamber (Conviron) at 25° C. and 60% humidity under a dark/light cycle of 16/8 h for 5 days (seedlings were at code 10). At this point, seedlings were exposed to a temperature of −5° C. for 3 hours. Following cold stress, the viable seedlings were kept growing until they had reached code 13. At this stage, they were submitted to additional 2 hours of cold stress at −5° C. Finally, the number of damaged seedlings (%) for each seed treatment was recorded.

[2] = tested on: Arabidopsis thaliana plants; test: Cold/freezing stress on Arabidopsis thaliana plants, visual assessment of % leaf damage; conditions: for reduction of cold stress symptoms: Arabidopsis plants under different stress conditions
Procedure: Arabidopsis thaliana plants were grown in pots (8 cm diameter) under controlled environmental conditions at 21° C. during the day and at 19° C. during the night, under a light regiment of 9 h light and 15 h dark per day.
Chemical treatment was done 18 days after sowing. Each pot was treated with 500 μl of spray solution according to the treatment schedule below with a commercial pump spray applicator.
2) Orysastrobin (250 ppm) 3) Orysastrobin (500 ppm) 4) Pyraclostrobin (500 ppm)
After chemical treatment, the pots have been transferred to the same growth conditions for three days. Then the pots were transferred to three different environmental conditions to exert cold stress:
Control plants (A) were kept under the same conditions as described above.
Stressed plants (B) were transferred for 2 days to 6° C. under a 9-15 h day-night cycle. This cold treatment allows Arabidopsis plants to acclimate to a certain extent to the following freezing stress (−4° C., 24 h in the dark) (Wanner et al., 1999, Cold-induced freezing tolerance in Arabidopsis, Plant Physiology 120, 391-399).
Stressed plants (C) were not cold-hardened and kept for another 2 days under control environment before being transferred for one day to −4° C. without light.
After these treatments, all pots were returned to standard growth conditions (controlled environmental conditions) as described above.
3 days and 9 days after chemical treatment (3 days after recovery from freezing treatment) the trial was evaluated by visual assessment, scoring the symptoms in % leaf damage.

[3] = tested on: Adult Citrus trees (Citrus sinensis); test: Field freeze protection of adult Citrus trees by leaf application; conditions: three 1600 g/ha leaf applications at 14 to 18 day intervals
Procedure: Adult Citrus trees (Citrus sinensis) were treated by three 1600 g/ha pyraclostrobin leaf applications at 14 to 18 day intervals. Applications began shortly before the initial freeze in winter seasons. Temperatures dropped to −6° C. in three separate cold weather events. With extreme low temperatures, nothing is expected to reduce damage.

[4] = stress condition A (control plants, 21° C./19° C., no cold stress), 500 ppm spray, 9 days after chemical treatment
[5] = stress condition B (2 days 6° C. hardening, then −4° C. 24 h dark), 500 ppm spray, 3 days after recovery from freezing
[6] = stress condition C (not cold-hardened, −4° C. 24 h dark), 500 ppm spray, 3 days after recovery from freezing

## CO/C=C(/C(=O)OC)c1ccccc1Oc1cc(Oc2ccccc2C#N)ncn1 [Azoxystrobin, azoxystrobin]
[1]; seed treatment 1 g active ingredient/100 kg seeds
  number of damaged seedlings (%): 38%

## CNC(=O)/C(=N/OC)c1ccccc1CO/N=C(C)/C(=N/OC)C(/C)=N/OC [Orysastrobin, orysastrobin]
[2]
  reduction of cold stress symptoms: highly effective to reduce cold stress symptoms
[2]; stress condition A (control plants, 21° C./19° C., no cold stress), 250 ppm spray, 9 days after chemical treatment
  leaf damage: 0%
[2]; [4]
  leaf damage: 0%
[2]; stress condition B (2 days 6° C. hardening, then −4° C. 24 h dark), 250 ppm spray, 3 days after recovery from freezing
  leaf damage: 0%
[2]; [5]
  leaf damage: 0%
[2]; stress condition C (not cold-hardened, −4° C. 24 h dark), 250 ppm spray, 3 days after recovery from freezing
  leaf damage: 5%
[2]; [6]
  leaf damage: 10%

## pyraclostrobin
[1]; seed treatment 5 g active ingredient 100 kg seeds
  number of damaged seedlings (%): 0%
[3]; temperatures dropped to −6° C.
  chilling protection in citrus: strong chilling protection
[3]; temperatures dropped to −6° C. in three cold weather events
  leaf burn symptoms and fruit drop versus untreated control plants: less leaf burn symptoms and fruit drop
[2]
  reduction of cold stress symptoms: highly effective to reduce cold stress symptoms
[2]; [4]
  leaf damage: 0%
[2]; [5]
  leaf damage: 0%
[2]; [6]
  leaf damage: 30%
